Data published in ChEMBL document CHEMBL5233201, “Progress in mechanistically novel treatments for schizophrenia” (RSC Med Chem, 2021).

Molecular target: High affinity cGMP-specific 3',5'-cyclic phosphodiesterase 9A (Homo sapiens, UniProt O76083)
Assay: Inhibition of human PDE9A expressed in Escherichia coli DH10 by scintillation proximity assay

Chain of High affinity cGMP-specific 3',5'-cyclic phosphodiesterase 9A (O76083 whole entry): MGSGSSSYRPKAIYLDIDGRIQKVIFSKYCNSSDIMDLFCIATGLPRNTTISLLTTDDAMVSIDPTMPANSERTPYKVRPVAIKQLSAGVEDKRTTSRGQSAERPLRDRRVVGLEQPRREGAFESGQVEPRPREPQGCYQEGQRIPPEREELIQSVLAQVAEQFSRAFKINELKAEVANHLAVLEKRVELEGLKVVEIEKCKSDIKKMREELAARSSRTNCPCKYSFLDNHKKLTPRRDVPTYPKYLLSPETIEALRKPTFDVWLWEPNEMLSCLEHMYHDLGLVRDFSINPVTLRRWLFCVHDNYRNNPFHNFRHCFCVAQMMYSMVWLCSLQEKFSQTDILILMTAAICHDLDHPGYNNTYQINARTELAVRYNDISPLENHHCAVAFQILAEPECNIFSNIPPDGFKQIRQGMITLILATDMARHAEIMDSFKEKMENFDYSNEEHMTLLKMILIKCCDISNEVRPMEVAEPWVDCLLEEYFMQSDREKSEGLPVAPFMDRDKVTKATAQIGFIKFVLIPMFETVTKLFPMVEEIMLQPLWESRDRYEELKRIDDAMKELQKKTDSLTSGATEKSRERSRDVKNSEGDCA

Work on O=c1[nH]c(Cc2ccccn2)nc2c1cnn2C1CCOCC1 [OSORESNONTRINE] yielded an IC50 of 65 nM.
